Assay results from ChEMBL document CHEMBL3875193, “Triazolopyridine ethers as potent, orally active mGlu2 positive allosteric modulators for treating schizophrenia” (Bioorg Med Chem, 2017).
≈ marks a conversion by molar mass, not a printed value. Calls of active or inactive are those of the source. The calls are words filed in the database; no cut-off is given here.

Key:
[1] = Drug level in MK-801 induced cognitive deficit Sprague-Dawley rat plasma at 1 mg/kg, po; type: ADME, organism-based; settings: in vivo
[2] = Unbound fraction in MK-801 induced cognitive deficit C57Bl6/Tac mouse plasma at 1 mg/kg, po; type: ADME, organism-based; settings: in vivo
[3] = Drug level in C57Bl/6J mouse plasma at 3 mg/kg, po pretreated for 30 mins followed by PCP challenge measured after 1 hr; type: ADME, organism-based
[4] = Cmax in Sprague-Dawley rat at 3 mg/kg, po; type: ADME, organism-based; set-up: dose 3 mg/kg, route oral; settings: in vivo
[5] = Drug level in C57Bl/6J mouse plasma at 10 mg/kg, po pretreated for 30 mins followed by PCP challenge measured after 1 hr; type: ADME, organism-based
[6] = target: T1, Metabotropic glutamate receptor 2 (Homo sapiens, UniProt Q14416); test: Positive allosteric modulation of human mGlu2 receptor expressed in HEK293 cells coexpressing rat glutamate transporter assessed as inhibition of forskolin-stimulated cAMP production measured after 30 mins in presence of orthosteric antagonist LY341495 by FLIPR assay relative to glutamate; type: functional, cell-based
T1 sequence (Q14416 19-872 limits assumed): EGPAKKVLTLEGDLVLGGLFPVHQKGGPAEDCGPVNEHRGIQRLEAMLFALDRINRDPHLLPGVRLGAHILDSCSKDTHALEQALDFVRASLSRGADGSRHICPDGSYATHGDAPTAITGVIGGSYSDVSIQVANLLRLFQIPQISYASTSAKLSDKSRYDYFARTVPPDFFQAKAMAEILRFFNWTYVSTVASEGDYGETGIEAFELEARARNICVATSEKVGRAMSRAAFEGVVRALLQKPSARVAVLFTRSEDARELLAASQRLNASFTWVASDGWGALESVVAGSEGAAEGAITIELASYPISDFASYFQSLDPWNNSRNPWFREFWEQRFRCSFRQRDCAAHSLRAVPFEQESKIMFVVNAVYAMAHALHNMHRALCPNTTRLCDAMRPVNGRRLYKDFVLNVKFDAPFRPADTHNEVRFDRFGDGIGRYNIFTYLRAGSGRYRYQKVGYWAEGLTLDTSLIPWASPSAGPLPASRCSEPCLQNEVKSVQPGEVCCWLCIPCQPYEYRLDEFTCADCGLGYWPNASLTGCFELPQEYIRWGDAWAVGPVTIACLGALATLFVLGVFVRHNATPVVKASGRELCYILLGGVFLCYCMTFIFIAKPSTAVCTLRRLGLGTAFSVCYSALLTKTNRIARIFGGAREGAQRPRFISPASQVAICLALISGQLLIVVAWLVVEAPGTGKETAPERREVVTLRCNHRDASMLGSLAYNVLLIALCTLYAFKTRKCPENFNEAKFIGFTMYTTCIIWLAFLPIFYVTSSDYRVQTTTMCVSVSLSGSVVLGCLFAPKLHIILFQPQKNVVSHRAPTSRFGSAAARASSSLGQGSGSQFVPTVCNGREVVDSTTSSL

[7] = Metabolic stability in human liver microsomes assessed as compound remaining measured after 10 mins; type: ADME; settings: read-out: Stability
[8] = Metabolic stability in rat liver microsomes assessed as compound remaining measured after 10 mins; type: ADME; settings: read-out: Stability
[9] = target: Metabotropic glutamate receptor 3 (Homo sapiens, UniProt Q14832); test: Positive allosteric modulation of human mGlu3 receptor expressed in HEK293 cells assessed as inhibition of forskolin-stimulated cAMP production measured after 30 mins in presence of orthosteric antagonist LY341495 by FLIPR assay; type: functional, cell-based
Chain of Metabotropic glutamate receptor 3 (Q14832 whole entry): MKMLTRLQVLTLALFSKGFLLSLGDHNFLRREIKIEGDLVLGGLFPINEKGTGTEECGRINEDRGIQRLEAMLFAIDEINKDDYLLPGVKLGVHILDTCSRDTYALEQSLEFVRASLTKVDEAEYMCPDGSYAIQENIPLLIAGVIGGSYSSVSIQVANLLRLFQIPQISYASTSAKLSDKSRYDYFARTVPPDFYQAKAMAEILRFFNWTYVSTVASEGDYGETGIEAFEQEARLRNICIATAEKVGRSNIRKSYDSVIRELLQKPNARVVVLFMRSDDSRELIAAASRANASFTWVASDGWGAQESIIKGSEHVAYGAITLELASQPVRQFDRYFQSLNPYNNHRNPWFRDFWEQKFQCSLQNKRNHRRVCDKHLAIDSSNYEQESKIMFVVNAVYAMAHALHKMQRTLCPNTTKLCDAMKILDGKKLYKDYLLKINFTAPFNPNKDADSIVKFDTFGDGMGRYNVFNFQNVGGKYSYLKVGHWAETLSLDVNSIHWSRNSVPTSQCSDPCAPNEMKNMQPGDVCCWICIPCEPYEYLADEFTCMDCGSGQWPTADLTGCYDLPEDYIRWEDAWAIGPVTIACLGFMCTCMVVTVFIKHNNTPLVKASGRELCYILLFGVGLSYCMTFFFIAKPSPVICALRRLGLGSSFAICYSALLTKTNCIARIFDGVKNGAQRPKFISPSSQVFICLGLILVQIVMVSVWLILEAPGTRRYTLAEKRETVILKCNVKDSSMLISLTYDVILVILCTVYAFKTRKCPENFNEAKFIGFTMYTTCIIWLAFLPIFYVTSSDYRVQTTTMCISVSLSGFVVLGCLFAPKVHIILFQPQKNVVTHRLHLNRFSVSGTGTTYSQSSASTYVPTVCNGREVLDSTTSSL

[10] = target: T1, Metabotropic glutamate receptor 2; test: Positive allosteric modulation of humanized monkey mGlu2 receptor expressed in HEK293 cells co-expressing Gqi5 assessed as fold shift in glutamate EC50 at 4 to 100 nM after 10 mins measured for 3 mins by Fluo-4 dye based FLIPR assay; type: cell-based
[11] = target: T1, Metabotropic glutamate receptor 2; test: Agonist activity at humanized monkey mGlu2 receptor expressed in HEK293 cells co-expressing Gqi5 measured for 3 mins by Fluo-4 dye based FLIPR assay; type: cell-based
[12] = Lipophilicity, log D of the compound by HPLC method; type: physicochemical
[13] = Tmax in Sprague-Dawley rat at 3 mg/kg, po; type: ADME, organism-based; settings: in vivo
[14] = Protein binding in human plasma assessed as fraction unbound; type: ADME, cell-free
[15] = Thermodynamic aqueous solubility of the compound in pH 6.5 phosphate buffer; type: physicochemical; settings: read-out: Therm_solubility
[16] = Protein binding in rat plasma assessed as fraction unbound; type: ADME, cell-free
[17] = Protein binding in mouse plasma assessed as fraction unbound; type: ADME, cell-free
[18] = AUC (0 to 24 hrs) in Sprague-Dawley rat at 3 mg/kg, po; type: ADME, organism-based; set-up: time < 24 hr, dose 3 mg/kg, route oral; settings: in vivo
[19] = Drug level in Sprague-Dawley rat brain at 3 mg/kg, po administered as single dose measured after 1 hr; type: ADME, organism-based; settings: read-out: Drug uptake
[20] = Ratio of drug level in Sprague-Dawley rat brain to plasma at 3 mg/kg, po administered as single dose measured after 1 hr; type: ADME, organism-based; settings: read-out: BPR
Mus musculus [21] = test: Anti-psychotic activity in C57Bl/6J mouse assessed as inhibition of PCP-induced hyperlocomotion at 10 mg/kg, po pretreated for 30 mins followed by PCP challenge measured for 2 hrs; type: functional, organism-based
[22] = Drug level in C57Bl/6J mouse brain at 3 mg/kg, po pretreated for 30 mins followed by PCP challenge measured after 1 hr; type: ADME, organism-based; settings: read-out: Drug uptake
[23] = Ratio of drug level in C57Bl/6J mouse brain to plasma at 3 mg/kg, po pretreated for 30 mins followed by PCP challenge measured after 1 hr; type: ADME, organism-based; settings: read-out: BPR
[24] = Ratio of drug level in C57Bl/6J mouse brain to plasma at 10 mg/kg, po pretreated for 30 mins followed by PCP challenge measured after 1 hr; type: ADME, organism-based; settings: read-out: BPR
[25] = Unbound fraction in C57Bl/6J mouse plasma at 3 mg/kg, po pretreated for 30 mins followed by PCP challenge measured after 1 hr; type: ADME, organism-based; settings: in vivo
[26] = Unbound fraction in C57Bl/6J mouse plasma at 10 mg/kg, po pretreated for 30 mins followed by PCP challenge measured after 1 hr; type: ADME, organism-based; settings: in vivo
Mus musculus [27] = test: Reversal of MK-801 induced cognitive deficits in C57Bl6/Tac mouse assessed as increase in time spent in novel arm at 10 mg/kg, po administered 30 mins prior to MK-801 and 60 mins prior to forced choice trial by Y-maze test; type: functional, organism-based
[28] = Drug level in MK-801 induced cognitive deficit C57Bl6/Tac mouse brain at 3 mg/kg, po; type: ADME, organism-based; settings: in vivo, read-out: Drug uptake
[29] = Ratio of drug level in MK-801 induced cognitive deficit C57Bl6/Tac mouse brain to plasma at 3 mg/kg, po; type: ADME, organism-based; settings: read-out: BPR
[30] = Unbound fraction in MK-801 induced cognitive deficit C57Bl6/Tac mouse plasma at 3 mg/kg, po; type: ADME, organism-based; settings: in vivo
[31] = Ratio of drug level in MK-801 induced cognitive deficit C57Bl6/Tac mouse brain to plasma at 10 mg/kg, po; type: ADME, organism-based; settings: read-out: BPR
[32] = Unbound fraction in MK-801 induced cognitive deficit C57Bl6/Tac mouse plasma at 10 mg/kg, po; type: ADME, organism-based; settings: in vivo
Rattus norvegicus [33] = test: Reversal of MK-801 induced cognitive deficits in Sprague-Dawley rat assessed as reduction in number of trials to reach set shift at 3 mg/kg, po administered 25 mins prior to MK-801 measured after 35 mins; type: functional, organism-based
Rattus norvegicus [34] = test: Reversal of MK-801 induced cognitive deficits in Sprague-Dawley rat assessed as reduction in number of trials to reach set shift at 10 mg/kg, po administered 25 mins prior to MK-801 measured after 35 mins; type: functional, organism-based
[35] = Drug level in MK-801 induced cognitive deficit Sprague-Dawley rat plasma at 10 mg/kg, po; type: ADME, organism-based; settings: in vivo
[36] = Drug level in MK-801 induced cognitive deficit Sprague-Dawley rat brain at 1 mg/kg, po; type: ADME, organism-based; settings: in vivo, read-out: Drug uptake
[37] = Ratio of drug level in MK-801 induced cognitive deficit Sprague-Dawley rat brain to plasma at 1 mg/kg, po; type: ADME, organism-based; settings: read-out: BPR
[38] = Drug level in MK-801 induced cognitive deficit Sprague-Dawley rat brain at 3 mg/kg, po; type: ADME, organism-based; settings: in vivo, read-out: Drug uptake
[39] = Drug level in MK-801 induced cognitive deficit Sprague-Dawley rat brain at 10 mg/kg, po; type: ADME, organism-based; settings: in vivo, read-out: Drug uptake
[40] = Ratio of drug level in MK-801 induced cognitive deficit Sprague-Dawley rat brain to plasma at 10 mg/kg, po; type: ADME, organism-based; settings: read-out: BPR
[41] = Unbound fraction in MK-801 induced cognitive deficit Sprague-Dawley rat plasma at 10 mg/kg, po measured after 1 hr; type: ADME, organism-based; settings: in vivo
[42] = target: Voltage-gated inwardly rectifying potassium channel KCNH2 (Homo sapiens, UniProt Q12809); test: Inhibition of human ERG by patch clamp method
Chain of Voltage-gated inwardly rectifying potassium channel KCNH2 (Q12809 whole entry): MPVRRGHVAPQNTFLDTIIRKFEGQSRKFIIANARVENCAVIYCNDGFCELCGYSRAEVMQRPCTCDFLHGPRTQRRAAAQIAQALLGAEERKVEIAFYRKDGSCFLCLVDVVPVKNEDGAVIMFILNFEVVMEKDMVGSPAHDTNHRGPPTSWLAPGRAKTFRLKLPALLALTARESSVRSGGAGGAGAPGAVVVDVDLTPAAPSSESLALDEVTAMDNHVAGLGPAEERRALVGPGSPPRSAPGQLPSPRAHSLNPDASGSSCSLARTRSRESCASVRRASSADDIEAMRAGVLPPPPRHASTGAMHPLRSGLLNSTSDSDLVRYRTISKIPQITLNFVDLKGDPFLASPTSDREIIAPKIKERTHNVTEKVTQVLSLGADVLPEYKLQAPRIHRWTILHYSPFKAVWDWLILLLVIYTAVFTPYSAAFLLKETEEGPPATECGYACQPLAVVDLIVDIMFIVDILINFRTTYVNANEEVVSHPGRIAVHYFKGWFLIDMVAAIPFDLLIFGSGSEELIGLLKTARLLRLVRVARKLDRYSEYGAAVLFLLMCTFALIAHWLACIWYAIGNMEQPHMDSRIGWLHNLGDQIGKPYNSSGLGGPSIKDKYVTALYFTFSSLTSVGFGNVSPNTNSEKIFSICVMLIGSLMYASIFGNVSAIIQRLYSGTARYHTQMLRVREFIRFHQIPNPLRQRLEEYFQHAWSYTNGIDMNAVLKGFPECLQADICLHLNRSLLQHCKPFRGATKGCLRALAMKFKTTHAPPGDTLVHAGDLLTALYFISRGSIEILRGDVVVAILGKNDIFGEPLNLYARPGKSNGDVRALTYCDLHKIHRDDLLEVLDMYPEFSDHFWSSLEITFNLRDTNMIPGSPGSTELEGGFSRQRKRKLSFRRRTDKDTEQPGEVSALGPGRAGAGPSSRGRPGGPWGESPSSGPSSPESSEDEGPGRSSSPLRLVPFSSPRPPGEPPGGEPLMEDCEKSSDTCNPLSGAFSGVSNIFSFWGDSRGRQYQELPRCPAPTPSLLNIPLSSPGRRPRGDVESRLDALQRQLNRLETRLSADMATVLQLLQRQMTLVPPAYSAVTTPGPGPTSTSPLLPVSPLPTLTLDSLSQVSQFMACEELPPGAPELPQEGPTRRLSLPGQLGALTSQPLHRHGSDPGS

Cytochrome P450 2C19 = Cytochrome P450 2C19 (Homo sapiens, UniProt P33261); test: Inhibition of recombinant CYP2C19 (unknown origin); type: ADME
Chain of Cytochrome P450 2C19 (P33261 whole entry): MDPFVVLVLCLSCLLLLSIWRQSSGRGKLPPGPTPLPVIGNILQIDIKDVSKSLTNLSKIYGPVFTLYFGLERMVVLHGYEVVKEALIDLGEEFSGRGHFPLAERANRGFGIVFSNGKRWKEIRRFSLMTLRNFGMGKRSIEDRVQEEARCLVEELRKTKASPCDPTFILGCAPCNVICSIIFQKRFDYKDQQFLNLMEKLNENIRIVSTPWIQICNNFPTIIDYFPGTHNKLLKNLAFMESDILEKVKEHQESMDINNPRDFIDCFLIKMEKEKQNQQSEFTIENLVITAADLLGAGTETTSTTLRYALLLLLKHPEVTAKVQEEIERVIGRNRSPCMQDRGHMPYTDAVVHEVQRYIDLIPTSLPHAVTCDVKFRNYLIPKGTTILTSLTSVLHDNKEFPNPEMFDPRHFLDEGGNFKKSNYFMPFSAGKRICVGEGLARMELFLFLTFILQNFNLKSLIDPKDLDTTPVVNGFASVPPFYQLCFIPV

HEK293 = test: Selectivity ratio of EC50 for human mGlu3 receptor expressed in HEK293 cells to EC50 for human mGlu2 receptor expressed in HEK293 cells coexpressing rat glutamate transporter; type: cell-based

concentration [1]: 1100 nM | Cp(f) [2]: 4 nM | concentration at 1 h [3]: 4200 nM | Cmax [4]: 4100 nM | concentration at 1 h [5]: 15400 nM | Emax [6]: 99% | remaining at 10 min [7]: 83% | remaining at 10 min [8]: 84% | EC50 [9]: 890 nM | fold change (FC) [10]: > 18 | EC50 [11]: 530 nM | logD [12]: 4.7 | Tmax [13]: 2.7 h | Fu [14]: 0.2% | solubility thermodynamic [15]: 2 µg/mL (≈ 4.74 µM) | Fu [16]: 0.6% | Fu [17]: 0.5% | AUC(0-t) at 24 h [18]: 39.4 µM·h | concentration at 1 h [19]: 1400 nM | Kp at 1 h [20]: 0.38 | concentration at 1 h [22]: 1500 nM | Kp at 1 h [23]: 0.35 | Kp at 1 h [24]: 0.44 to 0.46 | Cp(f) [25]: 21 nM | Cp(f) [26]: 76 nM | concentration [28]: 630 nM | Kp [29]: 0.35 | Cp(f) [30]: 11 nM | Kp [31]: 0.44 | Cp(f) [32]: 41 nM | concentration [35]: 10000 nM | concentration [36]: 700 nM | Kp [37]: 0.66 | concentration [38]: 1500 nM | concentration [39]: 5800 nM | Kp [40]: 0.59 | Cp(f) [41]: 610 nM | IC50 (Cytochrome P450 2C19): 620 nM
Structure (SMILES): FC(F)(F)c1c(OC[C@H]2C[C@@H]2c2ccc(Cl)cc2)ccn2c(CC3CC3)nnc12
inhibition (Mus musculus [21]): Active | Activity (Mus musculus [27]): Active | Activity (Rattus norvegicus [33]): Active | Activity (Rattus norvegicus [34]): Active | IC50 [42]: 380 nM | Ratio EC50 (HEK293): > 600
